This is an account of results in patent publication US12448371B2, “Inhibitor compounds” (Cincera Therapeutics Pty Ltd, priority 2019, dated 2025).

Where two headings read alike, the source gives them in different places.

In one series the target is T1, Des1 (h) (Homo sapiens, UniProt O15121).
T1 construct: endogenous in cells; host or cells: parental Jurkat cells
T1 sequence (O15121 1-323): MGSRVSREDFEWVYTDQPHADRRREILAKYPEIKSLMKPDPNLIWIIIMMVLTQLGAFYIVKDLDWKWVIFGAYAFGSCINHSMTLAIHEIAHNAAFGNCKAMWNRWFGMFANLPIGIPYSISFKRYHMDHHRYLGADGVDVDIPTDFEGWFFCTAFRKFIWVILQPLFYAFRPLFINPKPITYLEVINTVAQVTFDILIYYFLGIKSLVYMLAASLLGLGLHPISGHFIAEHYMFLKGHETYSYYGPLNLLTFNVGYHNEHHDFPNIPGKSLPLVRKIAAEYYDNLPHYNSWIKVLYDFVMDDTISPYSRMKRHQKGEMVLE
The experiment in a line: Measurement of Dihydroceramide Desaturase-1 (Des-1) activity in intact Jurkat cells labeled with DhCer-C6-NBD (HPLC). The format is cell-based. In outline: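 Intact parental Jurkat cells in 0.5% serum medium were labelled with DhCer-C6-NBD; cells harvested at 500×g and ceramides extracted. NBD-labelled substrate and product resolved by C18 reverse-phase HPLC and quantified by fluorescence (ex 465/em 530 nm) as a measure of Des-1 activity.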

The nature of series [1]: T1/2 Human Liver Microsomes. The class given is in vitro ADME. From the text: Some non-limiting illustrative examples are presented below in Table 3-1.
For orientation: Microsomes from liver hold many membrane-bound enzymes, among them those of drug oxidation.

The test system of series [2] is TGF-β1-mediated αSMA expression. As to the kind of experiment: Fibroblast-to-Myofibroblast Transition (FMT) in human lung cells derived from IPF patient donors. The format is cell-based. To be noted: primary human bronchial fibroblasts from IPF donors; 8 concentrations up to 10 μM; FIG. 2. On the procedure: Fibroblast-to-Myofibroblast Transition (FMT) in Human Lung Cells Derived from Idiopathic Pulmonary Fibrosis (IPF) Patient Donors
Lung-derived primary human bronchial fibroblasts (from IPF donors) were seeded at 3,000 cells per well in 96-well plates, and were grown over 5 days prior to treatment with the desired compounds (cell medium was refreshed at 48 h). Cells were then treated with 8 different concentrations of Compound 8 or 46, in semi-log dilutions starting from the top dosage of 10 μM (vehicle control: 0.1% DMSO; positive control: SB525334 and nintendanib). 1-hour post compound addition, the cells were stimulated with the addition of 1.25 ng/mL TGF-β1, and incubated for 72 hours. Cells were then fixed with 4% formaldehyde, then stained using […] and imaged via high-content analysis. The assay was conducted in biological duplicates. This in vitro FMT assay results were provided by Charles River Laboratories through a service agreement.

The test system of series [3] is Connective Tissue Growth Factor (CTGF) gene expression. As to the kind of experiment: Real time quantitative PCR in TGFβ-stimulated human hepatic stellate cells (LX2) to detect CTGF gene expression. The format is cell-based. To be noted: LX-2, 5 μM, CTGF mRNA in TGFβ-stimulated LX2 cells vs vehicle control. On the procedure: Real Time Quantitative Polymerase Chain Reaction in Human Hepatic Stellate Cells (LX2) to Detect Connective Tissue Growth Factor (CTGF) Gene Expression The hepatic stellate cell line, LX2 was maintained in DMEM (LifeTechnologies) with 2% heat-inactivated FBS, 100U penicillin (LifeTechnologies), 0.1 mg/mL streptomycin (LifeTechnologies), and 2 mM L-glutamine (LifeTechnologies) at 37° C. with 5% CO2. Cells were seeded into 6-well plates (200,000 cells per well, 2 mLs media) and grown overnight. The cells were changed to 2 mLs 0.5% FBS media for 24 hours prior to treatment. Treatments were added in 2 mLs fresh 0.5% FBS media (vehicle control, long/mL TGFβ alone (R&D Systems), 10 ng/mL TGFβ+inhibitors) and incubated for 24 hours. […] RNA was extracted using Qiagen RNeasy kit (cat #74104), according to manufacturer's instructions. RNA (1 μg) was used to generate cDNA using the Qiagen Quantitect Reverse Transcription Kit (cat #205311), and stored at -20° C. cDNA was diluted (1:25 final) and combined with Sybr Green (Qiagen cat #204143), forward and reverse primers (50 ng each) and run on Real Time PCR Thermocycler machine (RG-6000, Corbett) with the following PCR conditions: Hold 1: 50° C. for 2 min; Hold 2: 95° C. for 15 min; Cycling: 45 cycles of: 95° C. for 30 sec, 58° C. for 21 sec, 72° C. for 15 sec, Hold 3: 72° C. for 30 sec, Melt: 72° C. to 99° C. GAPDH primers (Forward: [NT]; Reverse: [NT] primers (Forward: [NT]; Reverse: [NT] primers available from Origene, cat #HP205671)].

The mark [4] stands for this setting: Table 3-1, comparison of W ring with and without nitrogen, read-out: Des1 IC50.
The mark [5] stands for this setting: intact Jurkat cells, given as concentration range, or <X / >X if measured at one concentration X only, read-out: Des1 (h) Jurkat IC50.

Broadly, the IC50 is the concentration needed to halve the response being measured. Usually half-life stands for the time needed for the level to fall by half in the phase considered. Take `N=C(NO)c1ccc(Nc2ncc(-c3ccc(C(F)(F)F)cc3)o2)cc1`: on Des1 (h) (setting [4]), the IC50 fell in the range of 800 to 1000 nM. In series [1], this compound gave a half-life of 30 to 40 min.
`O=C(NCC(O)CO)c1ccc(Nc2ncc(-c3ccc(C(F)(F)F)cc3)o2)cn1` (centres unmarked): at Des1 (h) (setting [4]), the IC50 fell in the range of 1 to 10 nM. This compound also showed a half-life in series [1] of 210 to 220 min.
A word on the inhibition: it is how much of the control response was suppressed. A low value points to a weak effect. Turning to `N=C(NO)c1ccc(Nc2ncc(-c3ccc(C(F)(F)F)cc3)o2)cn1` [Example 8, 5-((5-[4-(Trifluoromethyl)phenyl]-1,3-oxazol-2-yl)amino)-N-hydroxy-pyridine-2-carboximidamide], the “inhibition of TGF-β1-mediated αSMA expression in IPF donors” value in series [2] was “concentration-dependent inhibition”. For the same compound, the IC50 at Des1 (h) (setting [5]) is 100 to 1000 nM. The same compound had an inhibition at 5 µM in series [3] of over 90%.
The like results for `N=C(NO)c1ccc(Nc2ncc(-c3ccc(C(F)(F)F)cn3)o2)cn1` [Example 46, N′-hydroxy-5-((5-(5-(trifluoromethyl)pyridin-2-yl)oxazol-2-yl)amino)-picolinimidamide] were, in that order, “concentration-dependent inhibition”, 100 to 1000 nM and over 90%.
For the compound `N/C(=N\O)c1ccc(Nc2cc(-c3ccc(C(F)(F)F)cc3)no2)cn1` [Example 89, N′-hydroxy-5-((3-(4-(trifluoromethyl)phenyl)isoxazol-5-yl)amino)picolinimidamide], at Des1 (h) (setting [5]), the IC50 was under 1000 nM. Moreover, in series [3], the inhibition at 5 µM was over 90%.
`N=C(NO)c1ccc(Nc2ncc(-c3ccc(C(F)(F)F)cc3)o2)cn1` [drawing 414]: at Des1 (h) (setting [4]), the IC50 fell in the range of 100 to 200 nM. In series [1], this compound yielded a half-life of 90 to 100 min.
In the same order, the values of `N/C(=N\O)c1ccc(Nc2ncn(-c3ccc(C(F)(F)F)cc3)n2)cn1` [drawing 416] are 70 to 80 nM and 170 to 180 min.
In the same order, the values of `N=C(NO)c1ccc(Nc2ncc(-c3ccc(C(F)(F)F)cn3)o2)cn1` [drawing 417] are 400 to 500 nM and 190 to 200 min.
The like results for `N/C(=N\O)c1ccc(Nc2ncc(-c3ccc(C(F)(F)F)cc3)o2)nn1` [drawing 418] were, in that order, 1 to 10 nM and 150 to 170 min.
